Source: US12653187B2, “Sulfur based pesticides” (AGRONATURALIS LTD, priority 2019, dated 2026)

Assay: Surface tension and equilibrium contact angle by drop shape analyser (Example 7)
Format: physicochemical
Method: The wetting properties of the individual surfactants and in combination were evaluated by dissolving the surfactants at various concentrations in deionised water. Surface tension and equilibrium contact angle were measured in triplicate using a drop shape analyser with results given in Table 9 below.

| Compound | contact angle (°) (0.005 % w/w in deionised water) | surface tension (mN/m) (0.005 % w/w in deionised water) | contact angle (°) (0.025 % w/w in deionised water) | surface tension (mN/m) (0.025 % w/w in deionised water) | contact angle (°) (0.050 % w/w in deionised water) | surface tension (mN/m) (0.050 % w/w in deionised water) | contact angle (°) (0.100 % w/w in deionised water) | surface tension (mN/m) (0.100 % w/w in deionised water) | contact angle (°) (0.200 % w/w in deionised water) | surface tension (mN/m) (0.200 % w/w in deionised water) | contact angle (°) (0.250 % w/w in deionised water) | surface tension (mN/m) (0.250 % w/w in deionised water) | contact angle (°) (0.010 % w/w in deionised water) | surface tension (mN/m) (0.010 % w/w in deionised water) | contact angle (°) (0.500 % w/w in deionised water) | surface tension (mN/m) (0.500 % w/w in deionised water) |
| --- | --- | --- | --- | --- | --- | --- | --- | --- | --- | --- | --- | --- | --- | --- | --- | --- |
| CCCCCCCCCCCCOS(=O)(=O)[O-].[Na+] [sodium lauryl sulfate] | 107.1 | 70.6 | 72.8 | 56.8 | 63.9 | 46.1 | 55.3 | 37.2 | 51.5 | 34.2 | 50.6 | 33.4 | – | – | – | – |
| CCCCC(CC)COC(=O)CC(C(=O)OCC(CC)CCCC)S(=O)(=O)[O-].[Na+] (stereo not shown) [sodium dioctylsulfosuccinate] | 54.1 | 44.3 | 35.4 | 34.7 | 31.5 | 32.2 | 28.7 | 28.3 | 24.4 | 26.8 | 22.8 | 26.1 | 38.2 | 43.6 | 21.4 | 25.3 |
